According to ChEMBL document CHEMBL1201862, “PubChem BioAssay data set” (2004):
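Briefly, cells in 96-well plates were exposed to five compound concentrations for 48 h, and endpoints were estimated by linear interpolation. At the GI50, growth is halved.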 Active and inactive are the calls of the source. Rule as the data show it: active = GI50 up to about 1.1 µM and inactive = higher.

Tests used:
Test in all cases: inhibition of tumour cell growth, NCI panel, 48 h
MCF7 = test system: MCF7
EKVX = test system: EKVX
BT-549 = test system: BT-549
OVCAR-3 = test system: OVCAR-3
K562 = test system: K562
T47D = test system: T47D
NCI-H460 = test system: NCI-H460
IGROV-1 = test system: IGROV-1
LOX IMVI = test system: LOX IMVI
SF-295 = test system: SF-295
CAKI-1 = test system: CAKI-1
HT-29 = test system: HT-29
HOP-92 = test system: HOP-92
M14 = test system: M14
MOLT-4 = test system: MOLT-4
DU-145 = test system: DU-145
MDA-N = test system: MDA-N
SK-MEL-5 = test system: SK-MEL-5
HCT-116 = test system: HCT-116
UO-31 = test system: UO-31

Measured: GI50

CC(C)c1ccccc1[S+]([O-])c1ccccc1C(C)(C)O (configuration not stated)
inactive: MCF7 > 100 µM | EKVX > 100 µM | BT-549 > 100 µM | OVCAR-3 > 100 µM | K562 60.4 µM | T47D > 100 µM | NCI-H460 30.8 µM | IGROV-1 > 100 µM | LOX IMVI 69.5 µM | SF-295 21.1 µM | CAKI-1 > 100 µM | HT-29 96.2 µM | HOP-92 > 100 µM | M14 > 100 µM | MOLT-4 > 100 µM | DU-145 > 100 µM | MDA-N 57.8 µM | SK-MEL-5 27.2 µM | HCT-116 > 100 µM

Cc1ccc(S(=O)(=O)c2ccsc2NC(=O)c2ccccc2)cc1
inactive: MCF7 > 26.7 µM | EKVX > 55.6 µM | BT-549 > 100 µM | OVCAR-3 > 100 µM | K562 2.17 µM | T47D > 100 µM | NCI-H460 41.1 µM | IGROV-1 > 43.3 µM | LOX IMVI > 64 µM | SF-295 22.1 µM | CAKI-1 40.7 µM | UO-31 > 49.3 µM | HOP-92 26.7 µM | M14 > 100 µM | MOLT-4 > 100 µM | DU-145 > 100 µM | MDA-N 3.39 µM | SK-MEL-5 12.7 µM | HCT-116 > 100 µM

CC(=O)OC[C@@H]1[C@H]2CC[C@]3(C)[C@@H](OC(C)=O)CC[C@H]3[C@@H]2CC[C@H]1C1(C)SCCS1
inactive: MCF7 > 25 µM | EKVX > 25 µM | BT-549 > 25 µM | OVCAR-3 > 25 µM | K562 > 25 µM | T47D > 25 µM | NCI-H460 > 25 µM | IGROV-1 > 25 µM | LOX IMVI > 25 µM | SF-295 > 25 µM | CAKI-1 > 25 µM | HT-29 > 25 µM | UO-31 > 25 µM | HOP-92 > 25 µM | M14 > 25 µM | MOLT-4 > 25 µM | DU-145 > 25 µM | MDA-N > 25 µM | SK-MEL-5 23.2 µM | HCT-116 > 25 µM

O=C(O)CCC[C@]1(O)O[C@@]2(CCCC2=O)[C@]2(O)CCC[C@@]21O
inactive: MCF7 > 100 µM | EKVX > 100 µM | BT-549 > 100 µM | OVCAR-3 > 100 µM | K562 > 100 µM | T47D > 100 µM | NCI-H460 > 100 µM | IGROV-1 > 100 µM | LOX IMVI > 100 µM | SF-295 4.24 µM | CAKI-1 26.5 µM | HT-29 > 100 µM | UO-31 > 100 µM | HOP-92 > 100 µM | M14 > 100 µM | MOLT-4 > 100 µM | DU-145 > 100 µM | MDA-N > 100 µM | SK-MEL-5 > 100 µM | HCT-116 > 100 µM

Cn1c2ccc([N+](=O)[O-])cc2c(=O)c2c(O)cc(O)cc21
inactive: MCF7 13.7 µM | EKVX 5.94 µM | BT-549 28.4 µM | OVCAR-3 52.4 µM | K562 > 100 µM | T47D 45.2 µM | NCI-H460 24.9 µM | IGROV-1 15.5 µM | LOX IMVI 37.1 µM | SF-295 15.3 µM | CAKI-1 43 µM | UO-31 59 µM | HOP-92 32.7 µM | M14 60.4 µM | MOLT-4 45.2 µM | DU-145 47.8 µM | MDA-N > 100 µM | SK-MEL-5 60 µM

CCOC(=O)C(C)c1nc2cc(C(F)(F)F)ccc2[nH]c1=O (configuration not stated)
inactive: MCF7 > 100 µM | EKVX 46.5 µM | BT-549 > 100 µM | OVCAR-3 82 µM | K562 59.8 µM | T47D 15.4 µM | NCI-H460 > 100 µM | LOX IMVI > 100 µM | SF-295 49.2 µM | CAKI-1 > 100 µM | HT-29 > 100 µM | UO-31 > 100 µM | HOP-92 71.1 µM | M14 > 100 µM | MOLT-4 85.5 µM | DU-145 84.5 µM | MDA-N > 100 µM | SK-MEL-5 42.2 µM | HCT-116 88.9 µM

CCN1CN(c2ccccc2)C2(CCN(CC(CC3OCCO3)c3ccc(F)cc3)CC2)C1=O (configuration not stated)
inactive: MCF7 2.26 µM | EKVX 6.7 µM | BT-549 21.6 µM | OVCAR-3 18.8 µM | K562 32 µM | T47D 5.13 µM | NCI-H460 14.7 µM | IGROV-1 6.75 µM | LOX IMVI 7.43 µM | SF-295 5.69 µM | CAKI-1 3.18 µM | HT-29 1.34 µM | UO-31 26.2 µM | HOP-92 2.13 µM | M14 5.24 µM | MOLT-4 4.99 µM | DU-145 4.2 µM | MDA-N 8.49 µM | SK-MEL-5 4.07 µM | HCT-116 3.36 µM

CC(=O)/N=C1\NC(=O)/C(=C/c2ccc(/C=C3/C(=O)N/C(=N\C(C)=O)N3C)cc2)N1C
inactive: MCF7 > 100 µM | EKVX > 100 µM | BT-549 > 100 µM | OVCAR-3 > 100 µM | T47D > 100 µM | NCI-H460 > 100 µM | IGROV-1 > 100 µM | LOX IMVI > 100 µM | SF-295 > 100 µM | CAKI-1 > 100 µM | HT-29 > 100 µM | UO-31 > 100 µM | HOP-92 > 100 µM | M14 > 100 µM | MOLT-4 > 100 µM | DU-145 > 100 µM | MDA-N > 100 µM | SK-MEL-5 > 100 µM | HCT-116 > 100 µM

CC(=O)N(C(=O)CC(=O)N/N=C\c1ccc(Br)c(N(CCC#N)CCC#N)c1)c1ccc(Cl)cc1
inactive: MCF7 52.7 µM | EKVX 60.5 µM | BT-549 58.9 µM | OVCAR-3 47.9 µM | K562 60 µM | T47D 43.3 µM | NCI-H460 74.5 µM | IGROV-1 21.4 µM | LOX IMVI 33.9 µM | SF-295 22.7 µM | CAKI-1 44.7 µM | UO-31 24.8 µM | HOP-92 30.2 µM | M14 34.5 µM | MOLT-4 42.6 µM | DU-145 30.2 µM | MDA-N 41.3 µM | HCT-116 62.4 µM

Clc1ccc(Cc2nc3ccccc3nc2-c2cccc(Cl)c2)cc1
inactive: MCF7 2.92 µM | EKVX 17.5 µM | BT-549 4.49 µM | OVCAR-3 4.21 µM | K562 1.94 µM | T47D 3.35 µM | NCI-H460 16.3 µM | IGROV-1 1.95 µM | LOX IMVI 1.95 µM | SF-295 17.1 µM | CAKI-1 2.73 µM | HT-29 2.61 µM | UO-31 1.78 µM | HOP-92 1.7 µM | M14 2.43 µM | MOLT-4 2.06 µM | DU-145 14.2 µM | MDA-N 2.28 µM | SK-MEL-5 4.91 µM | HCT-116 1.72 µM
